{
  "source": "patent EP2832347B1",
  "about": "“Method for identifying patchouli odorant materials” (Takasago International Corporation, priority 2013, dated 2015)",
  "key": {"[1]": {"tested_on": "seven other OR11A1-related olfactory receptors", "assay": "CRE-luciferase reporter assay on OR11A1 related receptors", "type": "cell-based, human", "details": "10/30/100 µM", "protocol": "(§1) The experiments were performed using a HEK293 cell line (deposited at the ATCC under accession n° CRL-1573) stably expressing the Gαolf G-protein and the cyclic nucleotide gated ion channel A2 subunit (CNGA2) (herein called HEKOlf). As described by Shirokova et al., 2005, the human Gαolf cDNA was cloned into the mammalian expression vector pPuro and cDNA for the bovine cyclic nucleotide gated ion channel A2 (CNGA2) subunit was cloned into the mammalian expression vector pcDNA3. Both constructs were transfected using Lipofectamine2000 (Invitrogen) following the manufacturer's instructions. Cellular clones stably expressing Gαolf and CNGA2 were obtained by antibiotic selection with 0.5µg/ml Puromycin and 200µg/ml Geneticin.\nAll transient transfections were performed with Lipofectamine 2000 (Invitrogen) according to the manufacturer's protocol. 10µl Lipofectamine 2000 were diluted in 500 µl DMEM and incubated for 5 minutes at room temperature. At the same time, 3µg of plasmid DNA were diluted in 500µl DMEM and added to the Lipofectamine 2000 mix to obtain a final volume of 1000µl. After incubation for a further 30 minutes at room temperature, the DNA-Lipofectamine complex was added to 1000µl of a cell suspension containing 1.600.000 cells/ml. Subsequently, 25µl per well of the complete mixture were seeded in black 384 well polystyrene assay plates. 25µl DMEM containing 20% FBS were added to each well 3 hours post-transfection.\nThe cDNAs for all olfactory receptors and an empty control vector were co-transfected with pGL4.29 (Promega). The pGL4.29 vector contains a cyclic adenosine monophosphate (cAMP) response element (CRE) that drives the transcription of the luciferase reporter gene luc2P (Photinus pyralis). luc2P is a synthetically-derived luciferase sequence with humanized codon optimization that is designed for high expression and reduced anomalous transcription.\nIn this assay, the interaction of an odorant with its cognate olfactory receptor leads to the activation of the human Gαolf G-protein. Gαolf is a stimulatory G-protein (Gαs) and activates adenylate cyclase, which converts adenosine triphosphate (ATP) into cAMP. Therefore, the activity of the transcribed luciferase can be used as an indication of olfactory receptor activation. […] The cells were then transferred into an automated fluorometric imaging plate reader (FLIPR^TETRA, Molecular Devices). […]\n(§2) The data obtained from different well replicates were analyzed with Excel, ScreenWorks, and SigmaPlot 10. […] The mean and standard deviation of the resulting fold of change values were calculated and plotted in vertical bar charts or concentration-response curves fitted by the SigmaPlot 10 software. […]"}, "OR11L1": {"molecular_target": "T1, OR11L1 (Homo sapiens, UniProt Q8NGX0)", "T1 construct": "expressed in transfected cells; host or cells: HEKOlf (HEK293 stably expressing human Galpha-olf and bovine CNGA2)", "T1 sequence (Q8NGX0 1-322)": "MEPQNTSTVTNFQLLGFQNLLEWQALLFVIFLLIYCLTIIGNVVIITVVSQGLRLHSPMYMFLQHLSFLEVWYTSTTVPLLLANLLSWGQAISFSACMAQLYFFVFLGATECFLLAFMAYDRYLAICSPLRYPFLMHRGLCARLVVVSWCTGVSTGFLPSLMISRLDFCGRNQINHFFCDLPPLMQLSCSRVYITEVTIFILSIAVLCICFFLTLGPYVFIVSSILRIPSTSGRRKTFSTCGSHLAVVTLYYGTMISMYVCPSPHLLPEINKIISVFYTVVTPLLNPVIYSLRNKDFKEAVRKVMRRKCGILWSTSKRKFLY", "assay": "CRE-luciferase reporter assay in HEKOlf cells transiently transfected with OR11L1", "type": "cell-based", "details": "Example 3; 10/30/100 µM", "protocol": "as §1\nAll odorants were stored in the dark at 4°C upon delivery. […]\nIn this assay, the interaction of an odorant with its cognate olfactory receptor leads to the activation of the human Gαolf G-protein. […] The cells were then transferred into an automated fluorometric imaging plate reader (FLIPR^TETRA, Molecular Devices). […]\nas §2"}},
  "data": [
    {"compound": "C[C@H]1CC[C@@]2(O)C(C)(C)[C@@H]3CC[C@@]2(C)[C@H]1C3", "note": "[Patchouli alcohol]", "values": [
      {"measurement": "fold of change", "setting": "[1]; Example 3, figure 4", "value": "around 1"},
      {"measurement": "response of seven other OR11A1-related olfactory receptors", "setting": "[1]; Example 3", "value": "none of the seven other OR11A1-related olfactory receptors responded"},
      {"measurement": "response in cells transfected with OR11L1", "setting": "OR11L1", "value": "unable to elicit a detectable response"}
    ]}
  ]
}
